In assay [1] the target is T1, NMDAR/TRPM4 complex (Homo sapiens, UniProt Q8TD43).
T1 construct: endogenous in cells; host or cells: human iPSC-derived brain organoids, week 25
The assay can be described thus: Co-immunoprecipitation of TRPM4 and NMDA receptor subunits, Western blot. It is filed as cell-based. Conditions: 10 μM for 30 min; lysates of human iPSC-derived brain organoids precipitated with anti-TRPM4; FIG. 5; hydrochloride. As for the experimental part: All procedures for co-immunoprecipitation were carried out at 4° C. Human iPSC derived brain organoids were cultured in Falcon@6 well TC-treated cell culture plate to week 25 as described (Bauersachs H G et al, Neuroscience, 2022; 484:83-97), which allows an abundant expression of both GluN2A/GluN2B/TRPM4 expression. 6 brain organoids were incubated with 10 μM compound 120 for 30 min, washed twice with ice-cold PBS and then lysed in 500 μL immunoprecipitation buffer (10 mM Tris, pH 8.0, 150 mM NaCl, 1 mM EDTA, 1% NP-40, 10% glycerol with EDTA-free Protease Inhibitor Cocktail (Roche). The lysate was incubated while rotating for 60 min, centrifuged for 12 min at 1,200×g to remove cell debris and nuclei. 10% of the supernatant was boiled with Laemmli buffer for input samples analysis. The rest of the supernatant was mixed with anti-TRPM4 antibody (1:200) overnight. The mixture was then incubated with Pierce™ Protein A Magnetic Beads for another 12 h to pull down antibody complex, and washed with immunoprecipitation buffer to remove any unspecific bindings. After the last washing, the supernatant was carefully removed, and the precipitate pellets were boiled in Laemmli buffer. Both input and precipitate samples were stored at −20° C. until analysed with western blots. […]

For assay [2], the system named is Primary mouse hippocampal neurons. The assay can be described thus: Excitotoxic (glutamate/NMDA-induced) cell death in primary neuronal cultures, protection index. It is filed as cell-based. As to conditions: protection index from area above curve over 24 h glutamate/NMDA insult, compounds added 30 min before, 10 μM, Group A also at lower concentrations. As for the experimental part: (§1) Primary mouse hippocampal neurons were prepared as previously described (Bading & Greenberg, Science, 1991; 253: 912-914; Zhang et al, Neuron, 2007, 53: 549-562) and maintained in Neurobasal-A medium supplemented with 2% B27, 5 mM L-Glutamax, and 0.5% Penicillin/Streptomycin until challenged with NMDA on days in vitro (DIV) 10. Glutamate-induced cell death was analyzed in a real-time manner by monitoring nuclear localized mCherry with IncuCyte® S3 Live-Cell Analysis System (Sartorius AG, Germany). Primary neurons plated in 24 well plates were infected with rAAV-hSyn-mCherry on DIV3 and challenged with 1 μM or 20 μM glutamate on DIV10. All compounds were added to the culture 30 min prior to glutamate/NMDA insult. Images were acquired following the glutamate application for 24 h with a 2 h interval, where 9-16 images were obtained via a 20×objective for each condition at each time point. Cell deaths were quantified by analyzing the existence of nuclear localized mCheery via the Basic Analyzer with Incucyte® 2021 software, size and average intensity were used as exclusion criteria.
In order to evaluate the protective effects of various compounds, a quantification method was developed to determine each compound's protection index. The protection index (from 0.0 to 10.0) was calculated by the area above the curve (AAC) during a 24 h excitotoxic stimuli, where the cell survival was normalized to the 0 h (FIG. 2), following the equation: […]
Where AAC represents for each compound, AACbasal represents for the basal condition without excitotoxic insult, AACVeh represents for the vehicle control with excitotoxic insult. Based on the equation, vehicle (DMSO) has a protection index at 0.0 and compound P401 of WO 2020/079244 has a protection index at 6.0 (at 10 μM).
The inventors also performed experiments with Group A compounds at lower concentration in a 3-fold dilution matter ([…]: 3.0, 1.0, 0.3, 0.1, 0.03) and were able to achieve a similar protection effect as 10 μM compound P401, but at a lower concentration.

Assay [3] relates to human iPSC-derived prefrontal cortex organoids. Description: Cell survival after glutamate/NMDA treatment in prefrontal cortex organoids (RealTime-Glo MT Cell Viability Assay). It is filed as cell-based. Conditions: pre-incubation 30 min, 200 μM NMDA for 24 h; compared with P401; FIG. 4; hydrochloride. On the procedure: Prefrontal cortex organoids were generated based on published literature (Bauersachs H G et al, Neuroscience, 2022; 484:83-97). Around week 20, organoids were pre-incubated with compound 120 for 30 min before challenged with 200 μM NMDA for 24 h, where 80% of neuron will undergo necrosis. The cell death was monitored and analyzed with a RealTime-Glo™ MT Cell Viability Assay (Promega, G9711) following the manufacture's instruction using a plate reader (luciferase). The cell survival (%) can be calculated by the following equation: […]
Where Ft is the luciferase intensity at each time point and Fbasal is the basal luciferase intensity before glutamate/NMDA insult to diminish the difference between different organoids. The Control and FControlBasal stands for the same in untreated organoids, therefore the cell death can be calculated by normalization to the healthy organoids.

Assay [4] has as its system Primary neurons. The assay can be described thus: Reactive oxygen species (H2O2) induced neuronal death in primary neurons. The assay is classed as cell-based, mouse. As to conditions: 300 μM H2O2 on DIV10; compounds added 30 min before; FIG. 3; hydrochloride. On the procedure:
as §1, with “Images were acquired following the glutamate application for 24 h with a 2 h interval, where 9-16 images were obtained via a 20×objective for each condition at each time point.” left out
Primary neurons plated in 24 well plates were infected with rAAV-hSyn-mCherry on DIV3 and challenged with 300 μM H2O2 on DIV10. […] Cell deaths were quantified by analyzing the existence of nuclear localized mCherry via the Basic Analyzer with Incucyte® 2021 software, size and average intensity were used as exclusion criteria.

“Also recorded” adds a separate entry of the source. Counter-ions that a name gives are not always drawn.

T1 sequence (Q8TD43 whole entry, one chain of several): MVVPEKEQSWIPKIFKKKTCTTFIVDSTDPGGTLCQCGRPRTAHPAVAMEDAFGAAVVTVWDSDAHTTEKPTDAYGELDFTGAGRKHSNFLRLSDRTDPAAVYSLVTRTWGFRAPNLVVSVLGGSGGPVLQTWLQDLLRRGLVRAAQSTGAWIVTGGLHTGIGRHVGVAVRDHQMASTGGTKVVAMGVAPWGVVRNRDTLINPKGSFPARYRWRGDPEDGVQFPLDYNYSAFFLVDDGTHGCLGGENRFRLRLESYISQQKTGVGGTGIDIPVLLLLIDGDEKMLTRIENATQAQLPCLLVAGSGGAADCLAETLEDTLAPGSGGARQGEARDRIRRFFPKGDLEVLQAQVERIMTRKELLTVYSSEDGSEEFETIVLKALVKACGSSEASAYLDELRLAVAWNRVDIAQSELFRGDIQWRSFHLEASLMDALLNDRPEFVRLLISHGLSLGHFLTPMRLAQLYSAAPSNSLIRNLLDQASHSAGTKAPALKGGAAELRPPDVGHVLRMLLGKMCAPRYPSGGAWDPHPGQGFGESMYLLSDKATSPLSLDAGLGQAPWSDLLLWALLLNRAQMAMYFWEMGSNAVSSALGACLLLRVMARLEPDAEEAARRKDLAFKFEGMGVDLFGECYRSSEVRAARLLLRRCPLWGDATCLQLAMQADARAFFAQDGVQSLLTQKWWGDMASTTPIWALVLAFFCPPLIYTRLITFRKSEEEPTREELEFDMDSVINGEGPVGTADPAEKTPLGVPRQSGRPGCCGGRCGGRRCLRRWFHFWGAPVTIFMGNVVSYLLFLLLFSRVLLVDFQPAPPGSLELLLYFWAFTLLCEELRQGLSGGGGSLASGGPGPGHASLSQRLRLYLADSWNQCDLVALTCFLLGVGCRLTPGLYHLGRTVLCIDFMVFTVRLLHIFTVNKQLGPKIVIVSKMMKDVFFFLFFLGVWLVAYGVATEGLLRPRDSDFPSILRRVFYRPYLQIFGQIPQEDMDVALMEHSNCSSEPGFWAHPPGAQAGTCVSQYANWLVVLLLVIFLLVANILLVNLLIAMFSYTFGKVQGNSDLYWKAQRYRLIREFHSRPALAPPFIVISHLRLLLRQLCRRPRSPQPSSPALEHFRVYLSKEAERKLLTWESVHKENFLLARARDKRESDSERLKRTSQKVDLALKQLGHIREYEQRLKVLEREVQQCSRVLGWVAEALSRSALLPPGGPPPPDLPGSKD

Turning to `NCCN(Cc1cccc(Cl)c1F)C1CC1` [Compound 120, N1-(3-chloro-2-fluorobenzyl)-N1-cyclopropylethane-1,2-diamine hydrochloride], the “disruption of NMDAR/TRPM4 complex” value in assay [1] is given as “the NMDAR/TRPM4 complex was disrupted; also recorded: disrupts the NMDAR/TRPM4 complex”. Besides, in assay [2] (first subset), the “Biological Activity Rating” value is on record as “A+++ (With a protection index between 5.0 to 7.0, provides a comparable protection to compound P401 (10 μM) at 0.3 μM.)”. In addition, the “cell survival (%) after glutamate/NMDA treatment” value in assay [3] was “superior protection over compound P401; also recorded: improves cell survival after glutamate/NMDA treatment”.
In the case of `CC(c1cccc(Cl)c1F)N(CCN)C1CC1` (centres unmarked) [Compound 220, N1-(1-(3-chloro-2-fluorophenyl)ethyl)-N1-cyclopropylethane-1,2-diamine hydrochloride], in assay [4], the “protection against H2O2 insult (cell survival)” value is “better protection against H2O2 insult compared to P401 at 10 μM; also recorded: even better protection than the prior art compound P401”. In assay [2] (second subset, hydrochloride), the “Biological Activity Rating” value is on record as “A++++ (With a protection index between 5.0 to 7.0, provides a comparable protection to compound P401 (10 μM) at 0.1 μM.)”.

The values above are taken from patent publication US20250339402A1, “EFFECTIVE MEANS TO MODULATE NMDA RECEPTOR-MEDIATED TOXICITY” (FUNDAMENTAL PHARMA GMBH, priority 2022, published 2025).
